Measurements published in PMC10779170, “Identification of 2,4-Di-tert-butylphenol as a Novel Agonist for Insect Odorant Receptors” (International Journal of Molecular Sciences, 2023).

What was measured:
Assay in all cases: two-electrode voltage clamp, Xenopus oocytes
Assay type in all cases: cell-based
Orco + Or24a [1] = target: T1, Orco + Or24a (Drosophila melanogaster, UniProt P81913); details: agonist; 0.3 μM in Figure 2C; holding potential -80 mV, ND96 pH 7.4
T1 construct: same complex as P3, site on OrX; with Odorant receptor coreceptor
T1 sequence (P81913 1-398): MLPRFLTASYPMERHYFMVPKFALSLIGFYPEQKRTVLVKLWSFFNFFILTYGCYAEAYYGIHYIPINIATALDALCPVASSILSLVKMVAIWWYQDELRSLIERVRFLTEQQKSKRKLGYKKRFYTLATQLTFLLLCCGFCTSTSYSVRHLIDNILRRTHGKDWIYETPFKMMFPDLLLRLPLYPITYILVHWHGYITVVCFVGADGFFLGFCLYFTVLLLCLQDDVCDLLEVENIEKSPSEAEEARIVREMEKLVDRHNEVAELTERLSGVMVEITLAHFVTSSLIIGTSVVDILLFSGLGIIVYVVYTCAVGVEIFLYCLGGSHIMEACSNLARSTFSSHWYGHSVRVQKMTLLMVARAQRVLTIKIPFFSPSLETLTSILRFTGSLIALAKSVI
T1 sequence (Q9VNB5 1-486 partner): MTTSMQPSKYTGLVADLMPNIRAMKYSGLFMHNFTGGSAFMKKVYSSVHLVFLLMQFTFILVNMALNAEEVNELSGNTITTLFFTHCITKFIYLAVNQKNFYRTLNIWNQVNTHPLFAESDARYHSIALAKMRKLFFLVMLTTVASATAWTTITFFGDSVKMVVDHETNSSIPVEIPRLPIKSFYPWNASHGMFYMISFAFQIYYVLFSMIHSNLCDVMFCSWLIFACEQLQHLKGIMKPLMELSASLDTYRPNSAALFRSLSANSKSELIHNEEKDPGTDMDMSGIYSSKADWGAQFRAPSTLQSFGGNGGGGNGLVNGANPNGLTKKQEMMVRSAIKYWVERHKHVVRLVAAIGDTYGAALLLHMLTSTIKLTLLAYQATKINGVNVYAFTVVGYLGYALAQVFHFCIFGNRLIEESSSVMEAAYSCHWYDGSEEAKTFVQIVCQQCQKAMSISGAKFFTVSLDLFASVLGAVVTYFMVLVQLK

Orco + Or35a [2] = target: T2, Orco + Or35a (Drosophila melanogaster, UniProt Q9V3Q2); details: agonist; 10 μM in Figure 2D; holding potential -80 mV, ND96 pH 7.4
T2 construct: same complex as P4, site on OrX; with Odorant receptor coreceptor
T2 sequence (Q9V3Q2 1-409): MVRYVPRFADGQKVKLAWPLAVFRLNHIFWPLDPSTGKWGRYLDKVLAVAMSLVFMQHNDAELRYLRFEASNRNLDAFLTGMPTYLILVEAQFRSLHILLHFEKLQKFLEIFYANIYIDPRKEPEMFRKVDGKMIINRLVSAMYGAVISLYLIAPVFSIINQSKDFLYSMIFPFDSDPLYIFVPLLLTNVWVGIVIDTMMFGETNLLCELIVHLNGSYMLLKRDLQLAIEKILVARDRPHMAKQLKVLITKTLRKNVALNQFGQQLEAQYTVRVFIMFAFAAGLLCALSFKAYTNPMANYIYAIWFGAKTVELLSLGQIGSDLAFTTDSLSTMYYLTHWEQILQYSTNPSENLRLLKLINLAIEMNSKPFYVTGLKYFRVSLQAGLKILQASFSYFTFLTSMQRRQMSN
T2 sequence (Q9VNB5 1-486 partner): T1 sequence (Q9VNB5 1-486 partner)

Orco + Or1a [3] = target: T3, Orco + Or1a (Drosophila melanogaster, UniProt Q9W5G6); details: agonist; 0.3 μM in Figure 2B; holding potential -80 mV, ND96 pH 7.4
T3 construct: same complex as P2, site on OrX; with Odorant receptor coreceptor
T3 sequence (Q9W5G6 1-392): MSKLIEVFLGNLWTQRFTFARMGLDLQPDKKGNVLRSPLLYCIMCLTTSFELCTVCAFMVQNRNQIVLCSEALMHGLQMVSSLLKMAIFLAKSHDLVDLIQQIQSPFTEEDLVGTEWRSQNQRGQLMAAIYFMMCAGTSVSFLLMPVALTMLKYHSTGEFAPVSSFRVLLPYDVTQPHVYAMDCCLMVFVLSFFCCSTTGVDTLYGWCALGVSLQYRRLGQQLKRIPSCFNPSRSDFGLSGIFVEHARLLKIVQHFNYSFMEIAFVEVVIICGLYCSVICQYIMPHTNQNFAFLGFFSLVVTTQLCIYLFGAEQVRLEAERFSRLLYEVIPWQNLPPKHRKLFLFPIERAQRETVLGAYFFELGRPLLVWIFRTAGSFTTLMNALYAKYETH
T3 sequence (Q9VNB5 1-486 partner): T1 sequence (Q9VNB5 1-486 partner)

ORCO + Or35a [4] = target: T4, ORCO + Or35a (Drosophila melanogaster, UniProt Q9VNB5); details: agonist; holding potential -80 mV, ND96 pH 7.4, room temperature
T4 construct: heteromer; cRNAs co-injected in Xenopus laevis oocytes (pGEM-HE); for DTBP, site on Orco; with Odorant receptor 35a
T4 sequence (Q9VNB5 1-486): T1 sequence (Q9VNB5 1-486 partner)
T4 sequence (Q9V3Q2 1-409 partner): T2 sequence (Q9V3Q2 1-409)
From the text: two-electrode voltage clamp, Xenopus oocytes on ORCO + Or35a

Orco homomeric receptor = target: T5, Orco homomeric receptor (Drosophila melanogaster, UniProt Q9VNB5); details: agonist; holding potential -80 mV, ND96 pH 7.4, room temperature
T5 construct: synthesised cDNA in pGEM-HE, cRNA injected in Xenopus laevis oocytes; homotetramer
T5 sequence (Q9VNB5 1-486): T1 sequence (Q9VNB5 1-486 partner)

ORCO + Or24a [5] = target: T6, ORCO + Or24a (Drosophila melanogaster, UniProt Q9VNB5); details: agonist; holding potential -80 mV, ND96 pH 7.4, room temperature
T6 construct: heteromer; cRNAs co-injected in Xenopus laevis oocytes (pGEM-HE); for DTBP, site on Orco; with Odorant receptor 24a
T6 sequence (Q9VNB5 1-486): T1 sequence (Q9VNB5 1-486 partner)
T6 sequence (P81913 1-398 partner): T1 sequence (P81913 1-398)
From the text: two-electrode voltage clamp, Xenopus oocytes on ORCO + Or24a

ORCO + Or1a [6] = target: T7, ORCO + Or1a (Drosophila melanogaster, UniProt Q9VNB5); details: agonist; holding potential -80 mV, ND96 pH 7.4, room temperature; unit inferred, μM from text for the ORCO row
T7 construct: heteromer; cRNAs co-injected in Xenopus laevis oocytes (pGEM-HE); for DTBP, site on Orco; with Odorant receptor 1a
T7 sequence (Q9VNB5 1-486): T1 sequence (Q9VNB5 1-486 partner)
T7 sequence (Q9W5G6 1-392 partner): T3 sequence (Q9W5G6 1-392)
From the text: two-electrode voltage clamp, Xenopus oocytes on ORCO + Or1a

CCCCCCCCO [octanol]
normalised dose-response curve (Orco + Or24a [1]): illustrate the normalized activation of DTBP and other odorants for each heteromeric receptor

CCCCC(C)O (stereo not shown) [2-hexanol]
normalised dose-response curve (Orco + Or35a [2]): illustrate the normalized activation of DTBP and other odorants for each heteromeric receptor

CCCCCC(C)=O [2-heptanone]
normalised dose-response curve (Orco + Or1a [3]): illustrate the normalized activation of DTBP and other odorants for each heteromeric receptor

CC(C)(C)c1ccc(O)c(C(C)(C)C)c1 [2,4-di-tert-butylphenol]
EC50 (ORCO + Or35a [4]): 38.1 ± 3.8 µM | EC50 (Orco homomeric receptor): 13.4 ± 3 µM | EC50 (ORCO + Or24a [5]): 51 ± 8.2 µM | EC50 (ORCO + Or1a [6]): 104 ± 27.7 µM
